Laboratory results reported in US7378446B2, “Compound having anti-HCV activity and process for producing the same” (Chugai Seiyaku Kabushiki Kaisha, priority 2003, dated 2008).

What was measured:
[1] = system: Firefly luciferase HCV replicon cells (3-1); test: Replicon assay (firefly luciferase HCV replicon); assay type: cell-based; conditions: Hepatitis C virus, 72 h; Huh7-derived luciferase HCV replicon cells, 3 days culture with compound, Steady-Glo luminescence
Description: (§1) A construct was prepared in which a luciferase gene derived from firefly was introduced as a reporter gene in HCV-RNA to assay the number of copies of HCV-RNA. The luciferase gene was introduced in the form of fusing with neomycin-resistance gene directly below the IRES (Internal Ribosome Entry Site) of the HCV gene in accordance with the method of Krieger, et al. (J. Virol. 75:4614). After synthesizing this RNA in vitro, it was introduced into Huh7 cell by electroporation and isolated as G418-resistant clone. Firefly luciferase HCV replicon cells (3-1) were suspended in Dulbecco's MEM (Gibco cat. no. 10569-010) containing 5% fetal bovine serum (Hyclone cat. no. SH30071.03), inoculated into the wells of a 96-well plate at 5000 cells/well and then cultured overnight at 37° C. and 5% CO2. Approximately 20 hours later, the diluted test compound was added at 10 μl per well followed by culturing for another 3 days. Two series of assay plates were prepared, and the assay was carried out using a white plate for one series and a clear plate for the other series. Following completion of culturing, the white plate was used for the Steady-Glo Luciferase Assay System (Promega cat. no. E2520). Namely, after adding 100 μl of reagent per well, mixing by a pipette 3 to 4 times and then allowing to stand for 5 minutes, luminescence was measured with the 1450 MicroBeta TRILUX (Wallac). Values obtained in the absence of cell addition were used as background values and subtracted from all values to calculate the IC50 (50% inhibitory concentration) of the drug based on a value of 0% inhibition for the value in the absence of addition of test compound.

in vitro = assay type: cell-based; conditions: human; replicon cells, 3 days culture with compound, Cell Counting Kit 8, absorbance 450 nm; read-out: Cytotoxicity CC50
Description: as §1
The Cell Counting Kit 8 (Dojindo cat. no. CK04) was used to determine the cytotoxicity. Namely, 10 μl of Cell Counting Kit 8 were added to a clear plate and incubated for 30 to 60 minutes at 37° C. Absorbance at a wavelength of 450 nm and a control wavelength of 630 nm was measured with a 96-well plate reader. Values in the absence of cell addition were used as background values and subtracted from all values to calculate the CC50 (50% cell inhibitory concentration) of the drug based on a value of 0% inhibition for the value in the absence of addition of drug.

CCCCCCCC(=O)CCCCCC/C=C/[C@H](C(=O)N[C@@H](Cc1ccc(Oc2ccccc2)cc1)C(=O)O)[C@@](O)(CC(=O)O)C(=O)O [Compound 15]
IC50 [1]: 2 nM | CC50 (in vitro): > 5000 nM

CCCCCCCC(=O)CCCCCC/C=C/[C@H](C(=O)N[C@@H](Cc1ccc(C)cc1)C(=O)O)[C@@](O)(CC(=O)O)C(=O)O [Compound 16]
IC50 [1]: 10 nM | CC50 (in vitro): > 5000 nM

CCCCCCCC(=O)CCCCCC/C=C/[C@H](C(=O)N[C@@H](Cc1ccc(OCc2ccccc2)cc1)C(=O)O)[C@@](O)(CC(=O)O)C(=O)O [Compound 17]
IC50 [1]: < 1 nM | CC50 (in vitro): > 5000 nM

CC#CCOc1ccc(C[C@H](NC(=O)[C@@H](/C=C/CCCCCCC(=O)CCCCCCC)[C@@](O)(CC(=O)O)C(=O)O)C(=O)O)cc1 [Compound 18]
IC50 [1]: 1 nM | CC50 (in vitro): > 5000 nM

CCCCCCCC(=O)CCCCCC/C=C/[C@H](C(=O)N[C@@H](Cc1ccc(-c2ccccc2)cc1)C(=O)O)[C@@](O)(CC(=O)O)C(=O)O [Compound 19]
IC50 [1]: 2 nM | CC50 (in vitro): > 5000 nM

CCCCCCCC(=O)CCCCCC/C=C/[C@H](C(=O)N[C@@H](Cc1ccc2ccccc2c1)C(=O)O)[C@@](O)(CC(=O)O)C(=O)O [Compound 20]
IC50 [1]: 7 nM | CC50 (in vitro): > 5000 nM

CCCCCCCC(=O)CCCCCC/C=C/[C@H](C(=O)N[C@@H](Cc1ccc(OC2CCCCC2)cc1)C(=O)O)[C@@](O)(CC(=O)O)C(=O)O [Compound 21]
IC50 [1]: 4 nM | CC50 (in vitro): > 1000 nM

CCCCCCCC(=O)CCCCCC/C=C/[C@H](C(=O)N[C@@H](Cc1ccc(CCCC(C)C)cc1)C(=O)O)[C@@](O)(CC(=O)O)C(=O)O [Compound 22]
IC50 [1]: 14 nM | CC50 (in vitro): > 1000 nM

CCCCCCCC(=O)CCCCCC/C=C/[C@H](C(=O)N[C@@H](Cc1ccc(OC)c(OC)c1)C(=O)O)[C@@](O)(CC(=O)O)C(=O)O [Compound 23]
IC50 [1]: 17 nM | CC50 (in vitro): > 1000 nM

CCCCCCCC(=O)CCCCCC/C=C/[C@H](C(=O)N[C@@H](Cc1ccc(Oc2ccc(Cl)cc2)cc1)C(=O)O)[C@@](O)(CC(=O)O)C(=O)O [Compound 24]
IC50 [1]: 11 nM | CC50 (in vitro): > 1000 nM

CCCCCCCC(=O)CCCCCC/C=C/[C@H](C(=O)N[C@@H](Cc1ccc(Oc2ccc(F)cc2)cc1)C(=O)O)[C@@](O)(CC(=O)O)C(=O)O [Compound 25]
IC50 [1]: 9 nM | CC50 (in vitro): > 1000 nM

CCCCCCCC(=O)CCCCCC/C=C/[C@H](C(=O)N[C@@H](Cc1ccc(CCCCC)cc1)C(=O)O)[C@@](O)(CC(=O)O)C(=O)O [Compound 26]
IC50 [1]: 17 nM | CC50 (in vitro): > 1000 nM

CCCCCCCC(=O)CCCCCC/C=C/[C@H](C(=O)N[C@@H](Cc1ccc(-c2cccnc2)cc1)C(=O)O)[C@@](O)(CC(=O)O)C(=O)O [Compound 27]
IC50 [1]: 10 nM | CC50 (in vitro): > 1000 nM

CCCCCCCC(=O)CCCCCC/C=C/[C@H](C(=O)N[C@@H](Cc1ccc(-c2ccc(Cl)cc2)cc1)C(=O)O)[C@@](O)(CC(=O)O)C(=O)O [Compound 28]
IC50 [1]: 9 nM | CC50 (in vitro): > 1000 nM

CCCCCCCC(=O)CCCCCC/C=C/[C@H](C(=O)N[C@@H](Cc1ccc(-c2ccc(F)cc2)cc1)C(=O)O)[C@@](O)(CC(=O)O)C(=O)O [Compound 29]
IC50 [1]: 6 nM | CC50 (in vitro): > 1000 nM

CCCCCCCC(=O)CCCCCC/C=C/[C@H](C(=O)N[C@@H](Cc1ccc(-c2ccc(F)cc2F)cc1)C(=O)O)[C@@](O)(CC(=O)O)C(=O)O [Compound 30]
IC50 [1]: 8 nM | CC50 (in vitro): > 1000 nM

CCCCCCCC(=O)CCCCCC/C=C/[C@H](C(=O)N[C@@H](Cc1ccc(-c2ccsc2)cc1)C(=O)O)[C@@](O)(CC(=O)O)C(=O)O [Compound 31]
IC50 [1]: 12 nM | CC50 (in vitro): > 1000 nM

CCCCCCCC(=O)CCCCCC/C=C/[C@H](C(=O)NC(Cc1ccc(C(F)(F)F)cc1)C(=O)O)[C@@](O)(CC(=O)O)C(=O)O (stereo partly shown) [Compound 32]
IC50 [1]: 68 nM | CC50 (in vitro): > 1000 nM

CCCCCCCC(=O)CCCCCC/C=C/[C@H](C(=O)NC(Cc1ccc(C#N)cc1)C(=O)O)[C@@](O)(CC(=O)O)C(=O)O (stereo partly shown) [Compound 33]
IC50 [1]: 12 nM | CC50 (in vitro): > 1000 nM

CCCCCCCC(=O)CCCCCC/C=C/[C@H](C(=O)NC(Cc1ccc(Cl)cc1)C(=O)O)[C@@](O)(CC(=O)O)C(=O)O (stereo partly shown) [Compound 34]
IC50 [1]: 55 nM | CC50 (in vitro): > 1000 nM

CCCCCCCC(=O)CCCCCC/C=C/[C@H](C(=O)NC(Cc1ccc([N+](=O)[O-])cc1)C(=O)O)[C@@](O)(CC(=O)O)C(=O)O (stereo partly shown) [Compound 35]
IC50 [1]: 80 nM | CC50 (in vitro): > 1000 nM

CCCCCCCC(=O)CCCCCC/C=C/[C@H](C(=O)N[C@@H](Cc1cccs1)C(=O)O)[C@@](O)(CC(=O)O)C(=O)O [Compound 36]
IC50 [1]: 500 nM | CC50 (in vitro): > 1000 nM

CCCCCCCC(=O)CCCCCC/C=C/[C@H](C(=O)N[C@@H](Cc1ccc(C(C)(C)C)cc1)C(=O)O)[C@@](O)(CC(=O)O)C(=O)O [Compound 37]
IC50 [1]: 210 nM | CC50 (in vitro): > 1000 nM

CCCCCCCC(=O)CCCCCC/C=C/[C@H](C(=O)N[C@@H](Cc1ccc(-c2cccc(Cl)c2)cc1)C(=O)O)[C@@](O)(CC(=O)O)C(=O)O [Compound 38]
IC50 [1]: 24 nM | CC50 (in vitro): > 1000 nM

CCCCCCCC(=O)CCCCCC/C=C/[C@H](C(=O)N[C@@H](Cc1ccc(Oc2cccc(Cl)c2)cc1)C(=O)O)[C@@](O)(CC(=O)O)C(=O)O [Compound 39]
IC50 [1]: 20 nM | CC50 (in vitro): > 1000 nM

CCCCCCCC(=O)CCCCCC/C=C/[C@H](C(=O)NC(Cc1ccc(OCCCC)cc1)C(=O)O)[C@@](O)(CC(=O)O)C(=O)O (stereo partly shown) [Compound 40]
IC50 [1]: 1 nM | CC50 (in vitro): > 1000 nM

CCCCCCCC(=O)CCCCCC/C=C/[C@H](C(=O)NC(Cc1ccc(OCCC)cc1)C(=O)O)[C@@](O)(CC(=O)O)C(=O)O (stereo partly shown) [Compound 41]
IC50 [1]: 2 nM | CC50 (in vitro): > 1000 nM

C=CCOc1ccc(CC(NC(=O)[C@@H](/C=C/CCCCCCC(=O)CCCCCCC)[C@@](O)(CC(=O)O)C(=O)O)C(=O)O)cc1 (stereo partly shown) [Compound 42]
IC50 [1]: 1 nM | CC50 (in vitro): > 1000 nM

CCCCCCCC(=O)CCCCCC/C=C/[C@H](C(=O)NC(Cc1ccc(OC)cc1)C(=O)O)[C@@](O)(CC(=O)O)C(=O)O (stereo partly shown) [Compound 43]
IC50 [1]: 3 nM | CC50 (in vitro): > 1000 nM

CCCCCC(=O)CCCCCCCC/C=C/[C@H](C(=O)N[C@@H](Cc1ccc(OCCC(C)C)cc1)C(=O)O)[C@@](O)(CC(=O)O)C(=O)O [Compound 44]
IC50 [1]: 1 nM | CC50 (in vitro): > 1000 nM

CCCCCCCCCC(=O)CCCC/C=C/[C@H](C(=O)N[C@@H](Cc1ccc(OCCC(C)C)cc1)C(=O)O)[C@@](O)(CC(=O)O)C(=O)O [Compound 45]
IC50 [1]: 5 nM | CC50 (in vitro): > 1000 nM

CCCC(=O)CCCCCC/C=C/[C@H](C(=O)N[C@@H](Cc1ccc(OCCC(C)C)cc1)C(=O)O)[C@@](O)(CC(=O)O)C(=O)O [Compound 46]
IC50 [1]: 800 nM | CC50 (in vitro): > 5000 nM

CC(C)CCOc1ccc(C[C@H](NC(=O)[C@@H](/C=C/CCCCCCC(=O)CCc2ccccc2)[C@@](O)(CC(=O)O)C(=O)O)C(=O)O)cc1 [Compound 47]
IC50 [1]: 250 nM | CC50 (in vitro): > 1000 nM

C=CCCCCCC(=O)CCCCCC/C=C/[C@H](C(=O)N[C@@H](Cc1ccc(OCCC(C)C)cc1)C(=O)O)[C@@](O)(CC(=O)O)C(=O)O [Compound 48]
IC50 [1]: 3 nM | CC50 (in vitro): > 1000 nM

CCCCCCCCC(=O)CCCCCC/C=C/[C@H](C(=O)N[C@@H](Cc1ccc(OCCC(C)C)cc1)C(=O)O)[C@@](O)(CC(=O)O)C(=O)O [Compound 49]
IC50 [1]: 4 nM | CC50 (in vitro): > 1000 nM

CC(C)CCCCC(=O)CCCCCC/C=C/[C@H](C(=O)N[C@@H](Cc1ccc(OCCC(C)C)cc1)C(=O)O)[C@](O)(CC(=O)O)C(=O)O [Compound 50]
IC50 [1]: 4 nM | CC50 (in vitro): > 1000 nM

CCCCCCC(=O)CCCCCC/C=C/[C@H](C(=O)N[C@@H](Cc1ccc(OCCC(C)C)cc1)C(=O)O)[C@](O)(CC(=O)O)C(=O)O [Compound 51]
IC50 [1]: 17 nM | CC50 (in vitro): > 1000 nM

CC(C)CCOc1ccc(C[C@H](NC(=O)[C@@H](/C=C/CCCCCCC(=O)CCC2CCCCC2)[C@](O)(CC(=O)O)C(=O)O)C(=O)O)cc1 [Compound 52]
IC50 [1]: 24 nM | CC50 (in vitro): > 1000 nM

CCCCCCCC(=O)CCCCCC/C=C/[C@H](C(=O)N[C@@H](Cc1ccc(Oc2ccc(C)cc2)cc1)C(=O)O)[C@@](O)(CC(=O)O)C(=O)O [Compound 53]
IC50 [1]: 2 nM | CC50 (in vitro): > 1000 nM

CCCCCCCC(=O)CCCCCC/C=C/[C@H](C(=O)N[C@@H](Cc1ccc(Oc2ccc(OC)cc2)cc1)C(=O)O)[C@@](O)(CC(=O)O)C(=O)O [Compound 54]
IC50 [1]: 2 nM | CC50 (in vitro): > 1000 nM

CCCCCCCC(=O)CCCCCC/C=C/[C@H](C(=O)N[C@@H](Cc1ccc(Oc2ccc(C(F)(F)F)cc2)cc1)C(=O)O)[C@@](O)(CC(=O)O)C(=O)O [Compound 55]
IC50 [1]: 19 nM | CC50 (in vitro): > 1000 nM
